The values that follow are results of earlier work, collected in article PMC6377828 (Clinical cancer research : an official journal of the …, 2018).

Read-outs that look alike come from different tables or passages of the source.

The test system of this series is αvβ6-expressing xenograft tumor. The settings on record: murine xenograft models.

Regarding [^18F]FBA-A20FMDV2, the tumor uptake is recorded as 0.66 % ID/g (1 h) and 0.06 % ID/g (4 h).
